{
  "source": "patent EP4385508A1",
  "about": "“FURAN FATTY ACIDS FOR ENHANCING MUSCLE MASS” (Centre de Coopération Internationale en Recherche …, priority 2022, dated 2024)",
  "key": {"C2C12 myoblasts": {"test_system": "C2C12 myoblasts", "experiment": "C2C12 myoblast differentiation, fusion index by cytoimmunofluorescence", "type": "cell-based, Mouse", "conditions": "5 days in differentiation medium", "method": "(§1) Mouse myoblasts of the C2C12 cell line (ATCC) were seeded at a plating density of 7000 cells/cm2 in 6-well plates. They were grown in DMEM high glucose (4.5g/l) supplemented with gentamycin (50 µg/mL), amphotericin (50 µg/mL), and fetal calf serum (10%). Terminal differentiation was induced at cell confluence by lowering the medium serum concentration (0.5%).\n(§2) When indicated, FuFA-F2 was added to the culture medium at the indicated concentration. For the differentiation studies, FuFA-F2 was added at the confluence at the same time as the change in media condition. Three doses of FuFA-F2 were studied at a final concentration of 1, 10, or 50 µM. Human insulin was used at a concentration of 100 nM.\nCytoimmunofluorescence myoblast differentiation was assessed by observation of morphological changes and accumulation of muscle-specific markers. After methanol fixation and three washes with PBS-gelatin (0.2%), cells were labeled with an antibody raised against Troponin T (T6277, Sigma, diluted at 1:50) (Sigma-Aldrich, Saint-Quentin Fallavier, France). Nuclei were stained with Hoechst 33258 (1 µg/mL). To assess the extent of differentiation, the fusion index (percentage of nuclei incorporated into myotubes relative to the total number of nuclei) was calculated 120 h after adding the differentiation medium. Nuclei were counted on 10 images/dish using ImageJ software. […]"}, "myogenin": {"test_system": "myogenin", "experiment": "Myogenin protein level by Western blot in differentiating C2C12 cells", "type": "cell-based, Mouse", "conditions": "1, 10 and 50 µM, differentiation medium", "method": "as §1, §2\nProtein levels were assessed by Western blotting. Total proteins were measured using the Bio-Rad protein assay (Hercules, CA, USA) according to the manufacturer's instructions. Total proteins were lysed in RIPA buffer (20mM Tris, 150mM NaCl, 1mM EDTA, 1% NP40, pH 7.5 + complete cocktail protease inhibitors + Pierce phosphatase inhibitors tablet). 40 µg of cell extracts were loaded and blotted onto a nitrocellulose membrane. The membranes were washed, blocked with 5% nonfat milk and incubated in primary antibody overnight at 4°C. […]"}, "[1]": {"test_system": "AMP activated protein kinase (AMPK)", "experiment": "AMPK phosphorylation by Western blot in C2C12 myotubes", "type": "cell-based, Mouse", "conditions": "whatever the dose", "method": "as §1, §2\nProtein levels were assessed by Western blotting. Total proteins were measured using the Bio-Rad protein assay (Hercules, CA, USA) according to the manufacturer's instructions. […]\nAMP activated protein kinase (AMPK) is a crucial cellular energy sensor protein and is activated when intracellular ATP level decreases to regulate autophagy initiation (Hardie et al., 2012, Nat Rev Mol Cell Bio, Vol. 13 (4) : 251-262). […] The autophagy-related signaling was further evaluated by measuring the MTORC1 mediated phosphorylation […] at Ser757 which disrupts the interaction between ULK1 and AMPK. […] Therefore, the autophagic flux was assessed by measuring the conversion of LC3-I to LC3-II, through lipidation."}, "C57Bl6 mice": {"test_system": "C57Bl6 mice", "experiment": "Oral gavage supplementation in C57Bl6 mice: food intake, body weight, body composition (EchoMRI), muscle weight", "type": "in vivo", "conditions": "3 and a half weeks", "method": "Male C57Bl/6J wild-type mice were obtained from Janvier at 12 weeks of age and were randomly assigned to one of the two groups based on body weight. Mice were housed 2 per cage and maintained on a 12-hour light/dark cycle (lights on at 7:30 pm). Food and water were provided ad libitum. Enrichment (nesting cotton squares) was provided in each cage. Mice were treated once daily by oral gavage with vehicle (50% PEG-400, 0.5% Tween 80, and 49.5% distilled water) or FuFA-F2 (20 mg/kg). All animal experiments were performed according to European directives (86/609/CEE and 2010/63/CEE) and approved by the regional animal experimentation ethics committe: Région Languedoc-Roussillon (No36). Our institutional guidelines for the care and use of laboratory animals were observed. Our animal facility is approved by the Departmental Veterinary Services (No. E34-172-10, 2019/03/04) and the Ministry of Research (DUO No. 7053, 2020/02/26). according to the European Directive 210-63-EU, mice were observed daily for the general health status and mortality scoring.\nTo investigate in vivo the potential impact a furan-containing compound under the form of a triacylgycerol of FuFA-F2 on muscle characteristics, C57Bl6 mice were supplemented by oral gavage with vehicle or FuFA-F2 (20mg/kg) for 3 and a half weeks (Fig. 6A). […] However, fat mass was similar between the two groups (Fig. 6E)."}, "[2]": {"conditions": "20mg/kg oral gavage once daily, triacylglycerol of FuFA-F2, vs vehicle"}, "[3]": {"conditions": "20mg/kg oral gavage, vs vehicle"}},
  "data": [
    {"smiles": "CCCCCc1cc(C)c(CCCCCCCCC(=O)O)o1", "note": "[FuFA-F2]", "values": [
      {"measurement": "myoblast fusion index", "setting": "C2C12 myoblasts; 50 µM, 57% for control, p<0.05", "result": 61, "unit": "%"},
      {"measurement": "myoblast fusion index", "setting": "C2C12 myoblasts; 1 and 10 µM (all doses except 50 µM)", "result": "no significant effects"},
      {"measurement": "expression of myogenin", "setting": "myogenin", "result": "no effect"},
      {"measurement": "Activation level of AMPK, phosphorylation at Thr172", "setting": "[1]", "result": "significantly decreased"},
      {"measurement": "body weight", "setting": "C57Bl6 mice; [2]", "result": "significantly higher"},
      {"measurement": "food intake", "setting": "C57Bl6 mice; [2]", "result": "ate more"},
      {"measurement": "weight of the gastrocnemius", "setting": "C57Bl6 mice; [3]", "result": "significantly increased"},
      {"measurement": "weight of the quadriceps", "setting": "C57Bl6 mice; [3]", "result": "significantly increased"},
      {"measurement": "fat mass", "setting": "C57Bl6 mice; EchoMRI, 20mg/kg oral gavage, between the two groups", "result": "similar"},
      {"measurement": "lean mass", "setting": "C57Bl6 mice; EchoMRI, 20mg/kg oral gavage, vs control mice", "result": "greater"}
    ]}
  ]
}
